Laboratory results published in PubChem BioAssay (NCI).
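1) Cells in 96-well plates. 2) Compound, 48 h, 5 concentrations. 3) Linear interpolation between surrounding doses. 4) Unreached endpoint = highest concentration. At the TGI there is no net growth.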

Key:
Assay in all cases: inhibition of tumour cell growth, NCI panel, 48 h
786-0 renal = test system: 786-0 renal
A498 renal = test system: A498 renal
A549 NSCLC = test system: A549 NSCLC
ACHN renal = test system: ACHN renal
BT-549 breast = test system: BT-549 breast
CAKI-1 renal = test system: CAKI-1 renal
COLO 205 colon = test system: COLO 205 colon
DU-145 prostate = test system: DU-145 prostate
EKVX NSCLC = test system: EKVX NSCLC
HCT-116 colon = test system: HCT-116 colon
HCT-15 colon = test system: HCT-15 colon
HOP-62 NSCLC = test system: HOP-62 NSCLC
HS 578T breast = test system: HS 578T breast
HT29 colon = test system: HT29 colon
IGROV1 ovarian = test system: IGROV1 ovarian
KM12 colon = test system: KM12 colon
LOX IMVI melanoma = test system: LOX IMVI melanoma
M14 melanoma = test system: M14 melanoma
MALME-3M melanoma = test system: MALME-3M melanoma
MCF7 breast = test system: MCF7 breast
MDA-MB-231 breast = test system: MDA-MB-231 breast
MDA-MB-435 = test system: MDA-MB-435
MDA-N = test system: MDA-N
NCI-H23 lung = test system: NCI-H23 lung
NCI-H522 lung = test system: NCI-H522 lung
NCI/ADR-RES ovarian = test system: NCI/ADR-RES ovarian
OVCAR-4 ovarian = test system: OVCAR-4 ovarian
OVCAR-5 ovarian = test system: OVCAR-5 ovarian
OVCAR-8 ovarian = test system: OVCAR-8 ovarian
PC-3 prostate = test system: PC-3 prostate
RXF 393 renal = test system: RXF 393 renal
SF-268 CNS = test system: SF-268 CNS
SF-295 CNS = test system: SF-295 CNS
SF-539 CNS = test system: SF-539 CNS
SK-MEL-2 melanoma = test system: SK-MEL-2 melanoma
SK-MEL-28 melanoma = test system: SK-MEL-28 melanoma
SK-OV-3 ovarian = test system: SK-OV-3 ovarian
SN12C renal = test system: SN12C renal
SNB-19 CNS = test system: SNB-19 CNS
SNB-75 CNS = test system: SNB-75 CNS
SW-620 colon = test system: SW-620 colon
T-47D breast = test system: T-47D breast
TK-10 renal = test system: TK-10 renal
U251 CNS = test system: U251 CNS
UACC-257 melanoma = test system: UACC-257 melanoma
UACC-62 melanoma = test system: UACC-62 melanoma
UO-31 renal = test system: UO-31 renal
CCRF-CEM leukemia = test system: CCRF-CEM leukemia
HCC-2998 colon = test system: HCC-2998 colon
HL-60(TB) leukemia = test system: HL-60(TB) leukemia
HOP-92 NSCLC = test system: HOP-92 NSCLC
K-562 leukemia = test system: K-562 leukemia
MOLT-4 leukemia = test system: MOLT-4 leukemia
NCI-H226 lung = test system: NCI-H226 lung
NCI-H460 lung = test system: NCI-H460 lung
OVCAR-3 ovarian = test system: OVCAR-3 ovarian
SK-MEL-5 melanoma = test system: SK-MEL-5 melanoma

Which results are given for `COCN1C(=O)[C@@H]2CCCN2C(=O)c2cc(N)ccc21`?
TGI (786-0 renal): > 100 µM; TGI (A498 renal): > 100 µM; TGI (A549 NSCLC): > 100 µM; TGI (ACHN renal): > 100 µM; TGI (BT-549 breast): > 100 µM; TGI (CAKI-1 renal): > 100 µM; TGI (COLO 205 colon): 8.86 µM; TGI (DU-145 prostate): > 100 µM; TGI (EKVX NSCLC): > 100 µM; TGI (HCT-116 colon): > 100 µM; TGI (HCT-15 colon): > 100 µM; TGI (HOP-62 NSCLC): > 100 µM; TGI (HS 578T breast): > 100 µM; TGI (HT29 colon): > 100 µM; TGI (IGROV1 ovarian): > 100 µM; TGI (KM12 colon): > 100 µM; TGI (LOX IMVI melanoma): > 100 µM; TGI (M14 melanoma): > 100 µM; TGI (MALME-3M melanoma): > 100 µM; TGI (MCF7 breast): > 100 µM; TGI (MDA-MB-231 breast): > 100 µM; TGI (MDA-MB-435): > 100 µM; TGI (MDA-N): > 100 µM; TGI (NCI-H23 lung): > 100 µM; TGI (NCI-H522 lung): > 100 µM; TGI (NCI/ADR-RES ovarian): > 100 µM; TGI (OVCAR-4 ovarian): > 100 µM; TGI (OVCAR-5 ovarian): > 100 µM; TGI (OVCAR-8 ovarian): > 100 µM; TGI (PC-3 prostate): > 100 µM; TGI (RXF 393 renal): > 100 µM; TGI (SF-268 CNS): > 100 µM; TGI (SF-295 CNS): > 100 µM; TGI (SF-539 CNS): > 100 µM; TGI (SK-MEL-2 melanoma): > 100 µM; TGI (SK-MEL-28 melanoma): > 100 µM; TGI (SK-OV-3 ovarian): > 100 µM; TGI (SN12C renal): > 100 µM; TGI (SNB-19 CNS): > 100 µM; TGI (SNB-75 CNS): > 100 µM; TGI (SW-620 colon): > 100 µM; TGI (T-47D breast): > 100 µM; TGI (TK-10 renal): > 100 µM; TGI (U251 CNS): > 100 µM; TGI (UACC-257 melanoma): > 100 µM; TGI (UACC-62 melanoma): > 100 µM; TGI (UO-31 renal): > 100 µM

For `CCC(C#N)NCc1cccc(CNC(C#N)CC)c1` (stereo unspecified), which TGI (786-0 renal) is on record?
The TGI was > 100 µM.

What about the TGI (A498 renal) of the same compound?
Its TGI is > 100 µM.

What about the TGI (A549 NSCLC) of the same compound?
The TGI was > 100 µM.

What about the TGI (ACHN renal) of the same compound?
Its TGI is > 100 µM.

And the TGI (BT-549 breast)?
Its TGI is > 100 µM.

And the TGI (CAKI-1 renal)?
Its TGI is > 100 µM.

What about the TGI (CCRF-CEM leukemia) of the same compound?
The TGI was > 100 µM.

And the TGI (COLO 205 colon)?
Its TGI is > 100 µM.

What about the TGI (DU-145 prostate) of the same compound?
Its TGI is > 100 µM.

What about the TGI (EKVX NSCLC) of the same compound?
Its TGI is > 100 µM.

And the TGI (HCC-2998 colon)?
The TGI was > 100 µM.

And the TGI (HCT-116 colon)?
The TGI was > 100 µM.

What about the TGI (HCT-15 colon) of the same compound?
Its TGI is > 100 µM.

What about the TGI (HL-60(TB) leukemia) of the same compound?
The TGI was > 100 µM.

And the TGI (HOP-92 NSCLC)?
The TGI was > 100 µM.

What about the TGI (HS 578T breast) of the same compound?
The TGI was > 100 µM.

And the TGI (HT29 colon)?
Its TGI is > 100 µM.

And the TGI (IGROV1 ovarian)?
The TGI was > 100 µM.

What about the TGI (K-562 leukemia) of the same compound?
Its TGI is > 100 µM.

And the TGI (KM12 colon)?
Its TGI is > 100 µM.

What about the TGI (LOX IMVI melanoma) of the same compound?
The TGI was > 100 µM.

What about the TGI (M14 melanoma) of the same compound?
The TGI was 31.4 µM.

And the TGI (MALME-3M melanoma)?
Its TGI is > 100 µM.

And the TGI (MCF7 breast)?
The TGI was > 100 µM.

And the TGI (MDA-MB-231 breast)?
The TGI was > 100 µM.

What about the TGI (MDA-MB-435) of the same compound?
Its TGI is > 100 µM.

What about the TGI (MDA-N) of the same compound?
Its TGI is > 100 µM.

And the TGI (MOLT-4 leukemia)?
Its TGI is > 100 µM.

What about the TGI (NCI-H226 lung) of the same compound?
Its TGI is > 100 µM.

And the TGI (NCI-H23 lung)?
The TGI was > 100 µM.

And the TGI (NCI-H460 lung)?
The TGI was > 100 µM.

What about the TGI (NCI-H522 lung) of the same compound?
The TGI was > 100 µM.

And the TGI (NCI/ADR-RES ovarian)?
The TGI was > 100 µM.

And the TGI (OVCAR-3 ovarian)?
The TGI was > 100 µM.

What about the TGI (OVCAR-4 ovarian) of the same compound?
The TGI was > 100 µM.

And the TGI (OVCAR-5 ovarian)?
Its TGI is 34.2 µM.

What about the TGI (OVCAR-8 ovarian) of the same compound?
The TGI was > 100 µM.

What about the TGI (PC-3 prostate) of the same compound?
The TGI was > 100 µM.

What about the TGI (SF-268 CNS) of the same compound?
Its TGI is > 100 µM.

What about the TGI (SF-295 CNS) of the same compound?
The TGI was 33.7 µM.

And the TGI (SF-539 CNS)?
Its TGI is > 100 µM.

And the TGI (SK-MEL-2 melanoma)?
Its TGI is > 100 µM.

What about the TGI (SK-MEL-28 melanoma) of the same compound?
The TGI was > 100 µM.

And the TGI (SK-MEL-5 melanoma)?
The TGI was > 100 µM.

And the TGI (SK-OV-3 ovarian)?
The TGI was 32.3 µM.

What about the TGI (SN12C renal) of the same compound?
Its TGI is > 100 µM.

What about the TGI (SNB-19 CNS) of the same compound?
The TGI was > 100 µM.

What about the TGI (SW-620 colon) of the same compound?
The TGI was > 100 µM.

And the TGI (T-47D breast)?
Its TGI is > 100 µM.

What about the TGI (TK-10 renal) of the same compound?
The TGI was > 100 µM.

What about the TGI (U251 CNS) of the same compound?
Its TGI is > 100 µM.

And the TGI (UACC-257 melanoma)?
The TGI was > 100 µM.

What about the TGI (UACC-62 melanoma) of the same compound?
The TGI was > 100 µM.

What about the TGI (UO-31 renal) of the same compound?
Its TGI is > 100 µM.
